Test system: aromatic aminoacid-decarboxylase
Experiment: Blockade of aromatic aminoacid-decarboxylase activity
Type: biochemical
From the text: This blockade of the aromatic aminoacid-decarboxylase is irreversible and thus is of special interest since it is maintained as long as the enzyme molecules are in the effective range of the benzophenanthridine alkaloids. Sanguinarine and chelerythrine, representative of the benzophenanthridine alkaloids, have an aromatic structure which is similar to that of the aromatic amino acids. The enzyme “aromatic aminoacid-decarboxylase” confuses the ultimate structure of the benzophenanthridine alkaloid with the ring structure of the aromatic amino acid and fits it rather than the amino acids at its active center.

COc1ccc2c(c[n+](C)c3c4cc5c(cc4ccc23)OCO5)c1OC [chelerythrine]
block the activity of the aromatic aminoacid-decarboxylase: 92% | reversibility of blockade of the aromatic aminoacid-decarboxylase: irreversible

From US20030190344A1, “Animal feed or feed additive as performance enhancer or appetite enhancer for live stock” (priority 2000, published 2003)
